Data reported in patent US20240226107A1, “UBIQUITIN-SPECIFIC PROTEASE 1 (USP1) INHIBITOR” (SIMCERE ZAIMING PHARMACEUTICAL CO., LTD., priority 2021, published 2024).
Converted amounts (≈) assume the structure as drawn.

Key:
CYP3A4 = CYP3A4 (Homo sapiens (Human), UniProt P08684); experiment: CYP enzyme inhibition in pooled human liver microsomes (midazolam); type: in vitro ADME
Method: (§1) Typical substrate metabolic responses of five major human CYP subtypes (CYP1A2, CYP2C9, CYP2C19, CYP2D6, CYP3A4) were evaluated using 150-donor pooled human liver microsomes (purchased from Corning, Cat. No.: 452117). The influence of different concentrations of each compound to be tested on metabolic responses of phenacetin (CYP1A2), diclofenac sodium (CYP2C9), S-mephenytoin (CYP2C19), bufuralol hydrochloride (CYP2D6), and midazolam (CYP3A4) was determined by liquid chromatography-mass spectrometry (LC/MS/MS). […] Then 200 μL of acetonitrile solution containing 3% formic acid and 40 nM internal standard verapamil was added and centrifuged at 4000 rpm for 50 min. The mixture was cooled on ice for 20 min and centrifuged at 4000 rpm for 20 min to precipitate the protein. Then 200 μL of supernatant was analyzed by LC-MS/MS. The peak area was calculated from the chromatogram. The residual activity ratio (%) was calculated according to the following equation: Peak area ratio=metabolite peak area/internal standard peak area Residual activity ratio (%)=peak area ratio of compounds-to-be-tested group/peak area ratio of blank group The half inhibitory concentration (IC50) for CYP was calculated by Excel XLfit 5.3.1.3.

CYP2D6 = CYP2D6 (Homo sapiens (Human), UniProt P10635); experiment: CYP enzyme inhibition in pooled human liver microsomes (bufuralol hydrochloride); type: in vitro ADME
CYP2D6, sequence (P10635 whole entry): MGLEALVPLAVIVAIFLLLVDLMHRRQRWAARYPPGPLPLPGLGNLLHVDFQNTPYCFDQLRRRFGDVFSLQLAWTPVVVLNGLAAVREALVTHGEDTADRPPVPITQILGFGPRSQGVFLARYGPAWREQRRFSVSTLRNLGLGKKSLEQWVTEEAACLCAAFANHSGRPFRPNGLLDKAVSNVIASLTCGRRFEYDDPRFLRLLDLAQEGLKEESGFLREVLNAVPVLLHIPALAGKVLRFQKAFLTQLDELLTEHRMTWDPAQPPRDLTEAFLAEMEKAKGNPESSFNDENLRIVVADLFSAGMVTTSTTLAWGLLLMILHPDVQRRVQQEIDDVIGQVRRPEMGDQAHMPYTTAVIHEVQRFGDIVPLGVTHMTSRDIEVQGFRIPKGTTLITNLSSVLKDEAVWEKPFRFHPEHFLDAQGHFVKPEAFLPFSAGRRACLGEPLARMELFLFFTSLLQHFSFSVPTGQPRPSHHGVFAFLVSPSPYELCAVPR
Method: as §1

CYP2C9 = CYP2C9 (Homo sapiens (Human), UniProt P11712); experiment: CYP enzyme inhibition in pooled human liver microsomes (diclofenac sodium); type: in vitro ADME
CYP2C9, sequence (P11712 whole entry): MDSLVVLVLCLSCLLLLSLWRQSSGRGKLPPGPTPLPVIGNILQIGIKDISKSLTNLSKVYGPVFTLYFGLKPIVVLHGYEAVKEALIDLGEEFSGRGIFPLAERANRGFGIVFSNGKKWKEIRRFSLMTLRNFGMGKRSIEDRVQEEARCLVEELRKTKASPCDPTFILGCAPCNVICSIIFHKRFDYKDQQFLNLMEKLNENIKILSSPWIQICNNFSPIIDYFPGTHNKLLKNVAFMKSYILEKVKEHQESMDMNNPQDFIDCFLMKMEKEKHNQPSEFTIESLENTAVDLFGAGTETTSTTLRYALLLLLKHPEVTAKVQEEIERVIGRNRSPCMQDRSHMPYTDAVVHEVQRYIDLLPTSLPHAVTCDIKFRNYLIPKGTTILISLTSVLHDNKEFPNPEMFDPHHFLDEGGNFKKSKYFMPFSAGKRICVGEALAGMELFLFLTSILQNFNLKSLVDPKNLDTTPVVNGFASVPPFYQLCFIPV
Method: as §1

[1] = Solubility (PBS pH 7.4) of compounds from DMSO solution; type: physicochemical; conditions: aqueous buffer, kinetic from dmso stock, 10 mM DMSO solution into PBS pH 7.4, 25° C., read-out: Calculated solubility
Method: The solubility (PBS pH 7.4) of a compound to be tested was determined by LC/MS/MS. 6 μL of 10 mM DMSO solution of the compound to be tested was mixed with 194 μL of DMSO to prepare 300 μM compound solution. In 490 μL of water and acetonitrile (1:1) containing an internal standard, 5 μL of the solution and 5 μL of PBS pH 7.4 solution were mixed to prepare 3 μM standard concentration solution of the sample to be tested. The dilution factor of the standard solution can be adjusted according to the strength of response signals in LC/MS.
To 485 μL of PBS pH 7.4 solution, 15 μL of 10 mM DMSO solution of the compound to be tested was added. […] After shaking, the stir bar was removed, and the sample was transferred to a filter plate and filtered using a vacuum manifold. In 490 μL of water and acetonitrile (1:1) containing an internal standard, 5 μL of filtrate and 5 μL of PBS pH 7.4 solution were mixed to prepare a solution to be tested. The dilution factor can be adjusted according to the solubility value and the strength of response signals in LC/MS.
The resulting samples were determined by LC/MS/MS. The sample solubility was calculated from peak areas of the solution of the compound to be tested and the standard concentration solution, according to the following equation:
[formula] • [Sample] is the solubility of the sample to be tested; • Area ratiosample is the ratio of the peak area of sample in the sample to be tested to the peak area of the internal standard; • INJ VOL STD is the injection volume of the standard concentration solution; • DFsample is the dilution factor of the solution of the sample to be tested; • [STD] is the concentration of the standard concentration solution; • INJ VOLsample is the injection volume of the solution of the sample to be tested; and • Area ratio STD is the ratio of the peak area of sample in the standard concentration solution to the peak area of the internal standard.

[2] = In vivo pharmacokinetics in SD rats; conditions: male, rat, plasma
Method: Using SD rats as test animals, drug concentrations in plasma of the rats at different times after intravenous injection and intragastric administration of the compounds provided in the present application were determined by LC/MS/MS. In vivo pharmacokinetic behaviors of the compounds provided in the present application in rats were investigated to evaluate pharmacokinetic characteristics of the compounds.
There were three healthy 6-8-week-old male SD rats in each group.
Intravenous administration: A certain amount of drug was weighed, and then 10 vol % N,N-dimethylacetamide, 33 vol % triethylene glycol, and 57 vol % physiological saline were added to prepare 1 mg/mL colorless clear and transparent liquid;
Intragastric administration: A certain amount of drug was weighed, and then 0.5 wt % hydroxypropyl methylcellulose, 0.1 vol % tween 80, and 99.6 vol % physiological saline were added to prepare 1 mg/mL white suspension.
After fasting overnight, the SD rats were dosed intravenously or intragastrically.
The compounds provided in the present application were administered intravenously to the rats, then 0.2 mL of blood was collected from jugular veins respectively at 0.083, 0.25, 0.5, 1, 2, 4, 8, and 24 h after the administration, and placed in a test tube containing EDTA-K2. The test tube was then centrifuged at 4000 rpm at 4° C. for 5 min to separate plasma, and the plasma was stored at −75° C. Alternatively, the compounds provided in the present application were administered intragastrically to the rats, then 0.2 mL of blood was collected from jugular veins respectively at 0.25, 0.5, 1, 2, 4, 8, and 24 h after the administration, and placed in a test tube containing EDTA-K2. The test tube was then centrifuged at 3500 rpm at 4° C. for 10 min to separate plasma, and the plasma was stored at −75° C.
The content of the compounds to be tested in rat plasma after intravenous administration or intragastric administration at different concentrations was determined: 30 μL of rat plasma at each time after administration was taken, 200 μL (50 ng/mL) of solution of internal standard dexamethasone in acetonitrile was added, then the resulting mixture was vortex-mixed for 30 s, and centrifuged at 4700 rpm at 4° C. for 15 min, the supernatant of plasma samples was diluted three times with water, and 2.0 μL of diluted solution was taken for LC-MS/MS.

CYP1A2 = CYP1A2 (Homo sapiens (Human), UniProt P05177); experiment: CYP enzyme inhibition in pooled human liver microsomes (phenacetin); type: in vitro ADME
CYP1A2, sequence (P05177 whole entry): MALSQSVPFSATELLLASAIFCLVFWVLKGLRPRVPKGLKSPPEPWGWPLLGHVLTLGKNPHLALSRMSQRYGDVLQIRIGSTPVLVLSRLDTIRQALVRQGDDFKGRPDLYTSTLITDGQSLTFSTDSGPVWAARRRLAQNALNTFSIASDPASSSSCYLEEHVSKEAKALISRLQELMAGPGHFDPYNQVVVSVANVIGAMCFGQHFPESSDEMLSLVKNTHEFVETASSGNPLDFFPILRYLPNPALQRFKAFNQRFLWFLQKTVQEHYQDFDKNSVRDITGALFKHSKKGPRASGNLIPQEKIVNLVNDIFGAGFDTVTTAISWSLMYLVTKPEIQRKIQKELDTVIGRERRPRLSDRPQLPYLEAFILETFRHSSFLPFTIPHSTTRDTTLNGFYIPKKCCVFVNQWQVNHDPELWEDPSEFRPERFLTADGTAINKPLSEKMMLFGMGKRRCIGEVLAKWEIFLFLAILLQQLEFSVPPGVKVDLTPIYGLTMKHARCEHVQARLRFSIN
Method: as §1

CYP2C19 = CYP2C19 (Homo sapiens (Human), UniProt P33261); experiment: CYP enzyme inhibition in pooled human liver microsomes (S-mephenytoin); type: in vitro ADME
CYP2C19, sequence (P33261 whole entry): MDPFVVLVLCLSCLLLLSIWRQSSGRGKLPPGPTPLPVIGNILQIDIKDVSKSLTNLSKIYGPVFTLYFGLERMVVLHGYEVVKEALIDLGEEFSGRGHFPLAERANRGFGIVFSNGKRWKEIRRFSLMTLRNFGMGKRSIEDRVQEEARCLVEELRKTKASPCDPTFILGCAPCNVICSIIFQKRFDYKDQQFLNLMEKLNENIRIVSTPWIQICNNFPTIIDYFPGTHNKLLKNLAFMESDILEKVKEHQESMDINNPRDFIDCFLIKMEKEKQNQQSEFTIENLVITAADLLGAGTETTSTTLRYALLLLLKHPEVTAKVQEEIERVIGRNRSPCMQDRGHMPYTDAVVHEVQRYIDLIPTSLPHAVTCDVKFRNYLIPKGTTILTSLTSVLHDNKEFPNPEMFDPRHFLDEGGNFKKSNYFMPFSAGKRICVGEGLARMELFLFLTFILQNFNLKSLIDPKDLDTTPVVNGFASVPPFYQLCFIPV
Method: as §1

[3] = Caco-2 permeability assay; type: in vitro ADME; conditions: human, pH 7.4
Method: The apparent permeability coefficient (Papp) of the analytical drug was determined by liquid chromatography-mass spectrometry (LC-MS/MS) through a Caco-2 cell model.
In this test example, Caco-2 cells were purchased from American Type Culture Collection (ATCC); 4-hydroxyethyl piperazine ethane sulfonic acid (HEPES) was purchased from Beijing Solarbio Science & Technology Co., Ltd.; Hanks' balanced salt solution (HBSS) and non-essential amino acids (NEAA) were purchased from ThermoFisher Scientific; penicillin, streptomycin, and trypsin/EDTA were purchased from Solarbio; fetal bovine serum (FBS) and DMEM medium were purchased from Corning; HTS-96-well Transwell plates and other sterile consumables were purchased from Corning; Millicell resistance measuring system was purchased from Millipore; Cellometer®K2 was purchased from Nexcelom Bioscience; Infinite 200 PRO microplate reader was purchased from Tecan; and MTS2/4 orbital shaker was purchased from IKA Labortechnik.
Caco-2 cells were cultured in a culture flask. […] Cells at a confluency of 70-90% can be used to inoculate the Transwell. Prior to cell inoculation, 50 μL of cell culture medium was added to each well of the upper Transwell chamber and 25 mL of cell culture medium was added to the lower plate. The plate was incubated in an incubator (37° C., 5% CO2) for 1 h, and then inoculated with cells. After cell digestion, the cell suspension was pipetted and transferred to a round bottom centrifuge tube for centrifugation at 120 g for 5 min. […] The medium was changed as follows: transwell chambers were separated from the receiver plate, medium in the receiver plate was discarded, then medium in the Transwell chambers was discarded, and finally, 75 μL of fresh medium was added to each chamber, and 25 mL of fresh medium was added to the receiver plate.
After approximately 14 days of culture, the Caco-2 cells reached the confluency and completed differentiation. In this case, the cells can be applied to permeability assay. The monolayer resistance was measured with a resistance meter (Millipore, USA) and the resistance per well was recorded. After the measurement, the Transwell plate was put back to the incubator. Calculation of resistance: measured resistance value (ohms)×membrane area (cm^2)=TEER value (ohm·cm^2); if TEER value <230 ohms·cm^2, the well can not be used for permeability assay.
In 900 mL of purified water, 2.38 g HEPES and 0.35 g sodium bicarbonate were dissolved, then 100 mL of 10×HBSS was added and stirred well, pH was adjusted to 7.4, and finally, the resulting solution was filtered to obtain 1 L of transport buffer (HBSS, 10 mM HEPES, pH 7.4).
A DMSO stock solution of 1 mM of compound to be tested was diluted with the transport buffer to obtain 5 μM test solution. The control compound digoxin or minoxidil was diluted with DMSO to 2 mM, and diluted with the transport buffer described above to 10 μM to obtain a control compound test solution. In addition, DMSO was also diluted with the transport buffer described above to a receiving end solution containing 0.5% DMSO.
The Transwell plate was removed from the incubator. Monolayer cell membranes were rinsed twice with the transport buffer (10 mM HEPES, pH 7.4) and incubated at 37° C. for 30 min.
The transport rate of the compound from the apical side to the basolateral side was determined. […]
The transport rate of the compound from the basolateral side to the apical side was determined.

CYP3A4, sequence (P08684 whole entry): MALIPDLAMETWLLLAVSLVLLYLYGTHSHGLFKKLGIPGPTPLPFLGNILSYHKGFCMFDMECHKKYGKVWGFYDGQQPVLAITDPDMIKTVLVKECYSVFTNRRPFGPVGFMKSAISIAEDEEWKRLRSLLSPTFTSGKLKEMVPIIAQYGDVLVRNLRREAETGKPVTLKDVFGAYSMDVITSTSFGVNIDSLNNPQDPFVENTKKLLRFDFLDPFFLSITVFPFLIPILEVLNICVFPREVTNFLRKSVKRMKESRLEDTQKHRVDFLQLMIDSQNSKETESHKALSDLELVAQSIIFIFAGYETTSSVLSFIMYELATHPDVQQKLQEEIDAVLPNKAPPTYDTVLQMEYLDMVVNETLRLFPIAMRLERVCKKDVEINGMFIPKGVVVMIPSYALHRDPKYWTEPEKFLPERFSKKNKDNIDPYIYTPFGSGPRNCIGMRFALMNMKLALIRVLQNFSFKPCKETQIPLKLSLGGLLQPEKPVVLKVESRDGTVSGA

IC50 (CYP3A4): > 30 µM
IC50 (CYP2D6): > 30 µM
IC50 (CYP2C9): 28.9 µM
solubility at 2 h [1]: 214 µM (≈ 118 µg/mL)
Vd ([2]; IV 1 mg/kg, read-out: Apparent volume of distribution Vss_obs): 3.2 L/kg
clearance ([2]; IV 1 mg/kg, read-out: Clearance CL_obs): 16.5 mL/min/kg
half-life ([2]; IV 1 mg/kg, read-out: Half-life period T1/2 (converted)): 3.2 h
bioavailability ([2]; PO 5 mg/kg versus IV, read-out: Bioavailability F): 96.3%
Cmax ([2]; PO 5 mg/kg, read-out: Maximum plasma concentration Cmax): 1010 ng/mL
IC50 (CYP1A2): > 30 µM
IC50 (CYP2C19): 17.1 µM
Papp A→B at 2 h, 5 μM ([3]; Caco-2, 5 μM, 2 h, apical to basolateral): 4.9 ×10⁻⁶ cm/s
Papp B→A at 2 h, 5 μM ([3]; Caco-2, 5 μM, 2 h, basolateral to apical): 17.6 ×10⁻⁶ cm/s
efflux ratio at 2 h, 5 μM ([3]; Caco-2, Papp (B−A)/Papp (A−B)): 3.6
Compound: COc1ncnc(C2CC2)c1-c1ncc2c(n1)N(Cc1ccc(-c3nc(C(F)(F)F)cn3C)cc1)CC(=O)N2C [Compound 11, 2-(4-cyclopropyl-6-methoxypyrimidin-5-yl)-5-methyl-8-(4-(1-methyl-4-(trifluoromethyl)-1H-imidazol-2-yl)benzyl)-7,8-dihydropteridin-6(5H)-one]
